Data published in PMC6270423, “Phytochemical, Antimicrobial and Antiprotozoal Evaluation of Garcinia Mangostana Pericarp and α-Mangostin, Its Major Xanthone Derivative” (Molecules, 2013).
Read-outs that look alike come from different tables or passages of the source.

Experiments:
[1] = system: L. infantum MHOM/MA (BE)/67 amastigotes; assay: Antileishmanial activity, intracellular amastigotes in primary peritoneal mouse macrophages; format: cell-based, Leishmania infantum; conditions: 5 days
Description: The integrated panel of microbial screens and standard screening methodologies were adopted as previously described. All assays were performed in triplicate at the Laboratory of Microbiology, Parasitology and Hygiene at the University of Antwerp (Antwerp, Belgium). […] The selectivity of activity was assessed by simultaneous cytotoxicity evaluation on the MRC-5 fibroblast cell line. […] L. infantum MHOM/MA (BE)/67 amastigotes were collected from the spleen of an infected donor hamster and used to infect primary peritoneal mouse macrophages. To determine in vitro antileishmanial activity, 3 × 10^4 macrophages were seeded in each well of a 96-well plate. After 2 days outgrowth, 5 × 10^5 amastigotes/well, were added and incubated for 2 h at 37 °C. Pre-diluted plant extracts were subsequently added and the plates were further incubated for 5 days at 37 °C and 5% CO2. Parasite burdens (mean number of amastigotes/macrophage) were microscopically assessed on 500 cells after Giemsa staining of the […] expressed as a percentage of the blank controls without plant extract.

[2] = system: B. subtilis; assay: Antimicrobial activity; format: cell-based, Bacillius subtilis; conditions: Bacillus subtilis
Description: (§1) Samples were tested for antimicrobial activity according to the Clinical Laboratory Standard Institution using American type of Culture Collection (ATCC) standard.

[3] = system: Chloroquine-resistant P. falciparum K 1-strain; assay: Antiplasmodial activity, Malstat (pLDH) assay; format: cell-based; conditions: Plasmodium falciparum; K1 strain, 72 h
Description: (§2) The integrated panel of microbial screens and standard screening methodologies were adopted as previously described. All assays were performed in triplicate at the Laboratory of Microbiology, Parasitology and Hygiene at the University of Antwerp (Antwerp, Belgium). Extracts were tested at five concentrations (64, 16, 4, 1 and 0.25 μg/mL) to establish a full dose-titration and determination of the IC50 (inhibitory concentration 50%). […] The selectivity of activity was assessed by simultaneous cytotoxicity evaluation on the MRC-5 fibroblast cell line.
Chloroquine-resistant P. falciparum K 1-strain was cultured in human erythrocytes O^+ at 37 °C under a low oxygen atmosphere (3% O2, 4% CO2, and 93% N2) in RPMI-1640, supplemented with 10% human serum. Infected human red blood cells (200 μL, 1% parasitaemia, 2% haematocrit) were added to each well and incubated for 72 h. After incubation, test plates were frozen at −20 °C. Parasite multiplication was measured using the Malstat assay, a colorimetric method based on the reduction of 3-acetyl pyridine adenine dinucleotide (APAD) by parasite-specific lactate-dehydrogenase (pLDH).

[4] = system: Mycobacterium smegmatis; assay: Antimicrobial activity; format: cell-based; conditions: Mycolicibacterium smegmatis
Description: as §1

[5] = system: E. coli; assay: Antimicrobial activity; format: cell-based; conditions: Escherichia coli
Description: as §1

[6] = system: S. aureus; assay: Antimicrobial activity; format: cell-based; conditions: Staphylococcus aureus
Description: as §1

[7] = system: C. albicans; assay: Antimicrobial activity; format: cell-based; conditions: Candida albicans
Description: as §1

[8] = system: P. aeruginosa; assay: Antimicrobial activity; format: cell-based; conditions: Pseudomonas aeruginosa
Description: as §1

[9] = system: Mycobacterium intracellulare; assay: Antimicrobial activity; format: cell-based, M. intracellulare
Description: as §1

[10] = system: Mycobacterium xenopi; assay: Antimicrobial activity; format: cell-based, M. xenopi
Description: as §1

[11] = system: T. cruzi Tulahuen CL2; assay: Antitrypanosomal activity, T. cruzi on MRC-5 cells, LacZ reporter; format: cell-based, Trypanosoma cruzi; conditions: 7 days
Description: as §2
(§3) Trypanosoma brucei Squib-427 strain (suramin-sensitive) was cultured at 37 °C and 5% CO2 in Hirumi-9 medium, supplemented with 10% fetal calf serum (FCS). About 1.5 × 10^4 trypomastigotes/well were added to each well and parasite growth was assessed after 72 h at 37 °C by adding resazurin [29]. For Chagas disease, T. cruzi Tulahuen CL2 (benznidazole-sensitive, LacZ-reporter strain) was maintained on MRC-5 cells in minimal essential medium (MEM) supplemented with 20 mM L-glutamine, 16.5 mM sodium hydrogen carbonate and 5% FCS. […] After incubation at 37 °C for 7 days, parasite growth was assessed by adding the substrate chlorophenol red α-D-galactopyranoside. The color reaction was read at 540 nm after 4 h and absorbance values were expressed as a percentage of the blank controls.

[12] = system: Trypanosoma brucei Squib-427 strain; assay: Antitrypanosomal activity, T. brucei trypomastigotes, resazurin; format: cell-based; conditions: 72 h
Description: as §2, §3

[13] = system: Mycobacterium cheleneoi; assay: Antimicrobial activity; format: cell-based, M. cheleneoi
Description: as §1

[14] = Cytotoxicity assay, resazurin; format: cell-based; conditions: human, MRC-5 SV2 fibroblast cells
Description: The integrated panel of microbial screens and standard screening methodologies were adopted as previously described. All assays were performed in triplicate at the Laboratory of Microbiology, Parasitology and Hygiene at the University of Antwerp (Antwerp, Belgium). […] The selectivity of activity was assessed by simultaneous cytotoxicity evaluation on the MRC-5 fibroblast cell line. […] MRC-5 SV2 cells were cultivated in MEM, supplemented with L-glutamine (20 mM), 16.5 mM sodium hydrogen carbonate and 5% FCS. […] Cell viability was assessed fluorimetrically after 4 h of addition of resazurin. Fluorescence was measured (excitation 550 nm, emission 590 nm) and the results were expressed as % reduction in cell viability compared to control.

## COc1c(O)cc2oc3cc(O)c(CC=C(C)C)c(O)c3c(=O)c2c1CC=C(C)C [α-Mangostin]
[1]
  IC50: 8 µM
[1]; Leishmania infantum, Macrophage, 120 h
  IC50: 8 to 9 µM
[2]
  MIC: 3.9 µM
[2]; text
  MIC: 1.6 mg/L
[3]
  IC50: 2.2 µM
[4]; read-out: MIC Mycobacterium smegmatis
  MIC: 3.7 µM
[4]; read-out: MIC Mycobacterium species (M. smegmatis)
  MIC: 1.5 mg/L
[5]
  MIC: > 200 µM
[5]; no activity at all
  IC50: > 200 mg/L
[6]
  MIC: 7.8 µM
[6]; text
  MIC: 3.2 mg/L
[7]
  MIC: > 200 µM
[7]; no activity at all
  IC50: > 200 mg/L
[8]
  MIC: > 200 µM
[8]; no activity at all
  IC50: > 200 mg/L
[9]; read-out: MIC Mycobacterium intracellulare
  MIC: 3.7 µM
[9]; read-out: MIC Mycobacterium species (M. intracellulare)
  MIC: 1.5 mg/L
[10]; read-out: MIC Mycobacterium species (M. xenopi)
  MIC: 1.5 mg/L
[10]; read-out: MIC Mycobacterium xenopi
  MIC: 3.7 µM
[11]
  IC50: 8.9 µM
[11]; Trypanosoma cruzi, TULAHUEN, MRC5, 168 h
  IC50: 8 to 9 µM
[12]
  IC50: 7.9 µM
[12]; Trypanosoma brucei
  IC50: 8 to 9 µM
[13]; read-out: MIC Mycobacterium cheleneoi
  MIC: 3.7 µM
[13]; read-out: MIC Mycobacterium species (M. cheleneoi)
  MIC: 1.5 mg/L
[14]
  IC50 at 72 h: 7.5 µM

## COc1cc2oc3cc(OC)c(OC)c(CC=C(C)C)c3c(=O)c2c(O)c1CC=C(C)C
other
  melting point: 152 to 154 °C
